# Experimental data reported in patent publication US10842793B2, “Inhibitors of the unconventional secretion of fibroblast growth factor 2 (FGF2) by tumor cells and uses thereof” (Universität Heidelberg, priority 2016, dated 2020).
# Assays:
# [1] = target: T1, Tec kinase mediated tyrosine phosphorylation of FGF2 (GST-NΔ173 Tec) (Homo sapiens, UniProt P42680); assay: In vitro Tec kinase mediated tyrosine phosphorylation of FGF2; assay type: biochemical; conditions: 50 μM compound in 1% DMSO; FIG. 6C
# T1 construct: made in house; host or cells: Tec: SF9 insect cells (baculovirus); FGF2: E. coli
# T1 sequence (P42680 174-631, stated change not applied): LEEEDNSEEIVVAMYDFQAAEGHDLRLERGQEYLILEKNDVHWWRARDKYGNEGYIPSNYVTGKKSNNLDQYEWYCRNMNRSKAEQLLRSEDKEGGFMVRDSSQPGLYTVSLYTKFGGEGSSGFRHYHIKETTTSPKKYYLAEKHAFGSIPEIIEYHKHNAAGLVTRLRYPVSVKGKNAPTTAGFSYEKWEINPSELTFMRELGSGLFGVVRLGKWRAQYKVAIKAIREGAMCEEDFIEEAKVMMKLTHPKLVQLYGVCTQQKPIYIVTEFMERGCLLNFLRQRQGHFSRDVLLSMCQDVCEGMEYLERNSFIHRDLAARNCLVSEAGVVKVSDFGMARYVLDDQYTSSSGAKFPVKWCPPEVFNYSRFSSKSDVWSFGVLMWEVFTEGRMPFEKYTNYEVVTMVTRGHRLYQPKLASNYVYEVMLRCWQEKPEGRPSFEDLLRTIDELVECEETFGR
# Procedure: FGF2 tyrosine phosphorylation and Tec kinase auto-phosphorylation were reconstituted with purified components based on a Western analysis using anti-phosphotyrosine antibodies directed against an FGF2-derived phosphopeptide. In vitro phosphorylation experiments were conducted in the absence (1% DMSO mock control) and presence of the small molecule inhibitors (#6, #14, #21; 50 μM in 1% DMSO) and control compounds (#18, #19; 50 μM in 1% DMSO) introduced in FIGS. 4 and 5. Fluorescent secondary antibodies were used to detect antigens employing the LI-COR Odyssey imaging platform. M=PageRuler Prestained Protein Ladder. For details, see Experimental Procedures.
# (C) Quantification and statistical analysis of 5 independent experiments using the LI-COR Odyssey imaging platform. Following background normalization, the average of FGF2 tyrosine phosphorylation under mock conditions was defined as 100% activity. Standard deviations are shown. […]
# FGF2 and STAP1 tyrosine phosphorylation as well as Tec kinase auto-phosphorylation were analyzed as described in the legend to FIG. 6 and in Experimental Procedures. […] Fluorescent secondary antibodies were used to detect and quantify antigens using the LI-COR Odyssey imaging platform. In panels D, E and F, following normalization based upon background signals detected in the absence of Tec kinase or ATP, the average of the signals detected under mock conditions was defined as 100% activity. […]
# (§1) A Tec kinase in vitro phosphorylation assay was established to test the inhibitory potential and selectivity of the small molecule inhibitors reported in this study (FIGS. 6 and 7). […] Phosphorylation levels of GST-NΔ173 Tec (auto-phosphorylation), FGF2 and STAP1 were quantified by a Western analysis using polyclonal anti-phosphotyrosine antibodies raised against a FGF2-derived synthetic peptide containing a phosphorylated tyrosine residue (ANRpYLAMKED; SEQ ID NO: 1). […] Phosphorylation levels of STAP1 were monitored using a monoclonal anti-phosphotyrosine antibody (clone 4G10®, #05-321, Merck Millipore). […]
# [2] = target: T2, Tec kinase mediated tyrosine phosphorylation of STAP1 (Homo sapiens, UniProt P42680); assay: In vitro Tec kinase mediated tyrosine phosphorylation of STAP1; assay type: biochemical; conditions: 50 μM compound; FIGS. 7C and F
# T2 construct: made in house; host or cells: Tec: SF9 insect cells (baculovirus); STAP1 purchased (Hölzel Diagnostika, Cat. # GWB-P0486E-100)
# T2 sequence (P42680 174-631): as the sequence (P42680 174-631, stated change not applied) above
# Procedure: FGF2 and STAP1 tyrosine phosphorylation as well as Tec kinase auto-phosphorylation were analyzed as described in the legend to FIG. 6 and in Experimental Procedures. In vitro phosphorylation experiments were conducted in the absence (1% DMSO mock control) and presence of the small molecule inhibitors (#6, #14, #21; 50 μM in 1% DMSO) and control compounds (#18, #19; 50 μM in 1% DMSO) introduced in FIGS. 4 and 5. A Western analysis was conducted using anti-phosphotyrosine antibodies (anti-pY-FGF2 for FGF2 and Tec as well as anti-pY-4G10 for STAP1). M=PageRuler Prestained Protein Ladder: 140, 115, 80, 65, 50, 40, 30, 25, 15, 10 kDa. Fluorescent secondary antibodies were used to detect and quantify antigens using the LI-COR Odyssey imaging platform. In panels D, E and F, following normalization based upon background signals detected in the absence of Tec kinase or ATP, the average of the signals detected under mock conditions was defined as 100% activity. Standard deviations are shown. A one-tailed and unpaired T-test was conducted to assess statistical significance (* p<0.05, ** p<0.01, *** p<0.001, **** p<0.0001). “NS” indicates absence of significant differences.
# as §1, with “Millipore). Appropriate fluorescent secondary antibodies (goat anti-rabbit IgG conjugated with Alexa Fluor® 680, # A-21076, Life Technologies; goat anti-mouse IgG conjugated with Alexa Fluor® 680, # A-21057, Life Technologies) were used to quantify all antigens employing the LI-COR Odyssey infrared imaging platform.” for “Millipore).”
inhibition at 50 µM [1],inhibition of FGF2 tyrosine phosphorylation [1],SMILES,effect on tyrosine phosphorylation of STAP1 [2]
~75%,–,COC(=O)c1c(C)[nH]c(C(=O)OCc2cc(=O)n3c(C)cccc3n2)c1C [compound #6],neither auto-phosphorylation of NΔ173 Tec nor tyrosine phosphorylation of STAP1 is affected
–,almost quantitative inhibition,CC(=O)c1c(C)[nH]c(C(=O)OCc2cc(=O)n3cc(Br)ccc3n2)c1C [compound #14],neither auto-phosphorylation of NΔ173 Tec nor tyrosine phosphorylation of STAP1 is affected
–,almost quantitative inhibition,CC(=O)c1c(C)[nH]c(C(=O)CSc2nc3cc(Cl)cnc3[nH]2)c1C [compound #21],neither auto-phosphorylation of NΔ173 Tec nor tyrosine phosphorylation of STAP1 is affected
